Each structure is given as a SMILES string.

One test has as its target T1, β-PKC (Homo sapiens, UniProt P05771).
T1 construct: made in house; host or cells: Sf9 cells (baculovirus)
As to the kind of experiment: [3H]PDBu displacement from recombinant PKC isozyme (baculovirus). In kind it is binding. Particulars: [3H]PDBu competition. The protocol:
(§1) These procedures are described below. […] (See the key that follows)
(§2) Analysis of [20-^3H]phorbol 12,13-dibutyrate binding to PKC. […] [^3H]PDBu (20.0 Ci/mmol) was obtained from New England Nuclear. Phosphatidylserine and bovine […] were obtained from Sigma Chemical Co. Binding was determined in an incubation volume of 250 μl, containing [^3H]PDBu, PKC, 0.05 M Tris-Cl, pH 7.4, 100 μg/ml phosphatidylserine, various concentrations of the ligand being assayed for competition of [^3H]PDBu binding, and bovine […] at 1 mg/ml. In the case of the classical PKCs (α, β, […]) CaCl2 was included at a concentration of 0.1 mM. Liposomes of phosphatidylserine were prepared as follows. The phosphatidylserine solutions were dried down from CHCl3 under a stream of N2. After addition of 0.05 M Tris-Cl, pH 7.4, liposomes were prepared by sonication for 30 sec with the microtip probe of Sonifier Cell Disrupter (Heat Systems-Ultrasonics). [^3H]PDBu was used at a concentration twice the Kd previously determined for the specific receptor. Ligands were assayed over a concentration range of 3 orders of magnitude. Ligands were diluted in 0.05 M Tris-Cl, pH 7.4 containing 1 mg/ml bovine g-globulin. If the compounds were not soluble at the highest concentration used, they were dissolved in organic solvent (CHCl3 or ethanol) and mixed with the phosphatidylserine dissolved in CHCl3. The solvent was removed under a stream of N2.
(§3) Mixed liposomes were then prepared, as described for the preparation of the liposomes of phosphatidylserine alone, by the addition of 0.05 M Tris-Cl, pH 7.4, and sonication for 30 sec with the microtip probe of a Sonifier Cell Disrupter (Heat Systems-Ultrasonics). Incubation was for 5 min at 37° C. […] After vigorous mixing, the samples were incubated for 15 min to allow precipitation of the receptor. The precipitate was recovered by centrifugation at 12,000 rpm in a Beckman microcentrifuge at 4° C. […] This value provided a measure of the concentration of unbound [^3H]PDBu. The remainder of the supernatant was removed by aspiration and blotting with absorbent tissue. The tip of the centrifuge tube was cut off and the radioactivity in the pellet measured to determine total bound [^3H]PDBu. Non-specific binding of [^3H]PDBu was measured in the presence of 30 μM non-radioactive PDBu and used to determine an apparent partition coefficient for [^3H]PDBu under these assay conditions.
(§4) Specific binding represents the difference between total binding and the non-specific binding, where the latter value was calculated from the partition coefficient and the measured free [^3H]PDBu concentration in each tube. In each experiment, triplicate determinations were performed at each concentration of competing ligand. A half-maximal inhibitory concentration of inhibitor and a Ki for the inhibitor was determined by computer fit of the data points to the equation B(I)/B(O)=(L+Kd)/(Kd+(Kd/Ki)(I)+L), where B(I) represents the amount of [^3H]PDBu specifically bound in the presence of inhibitor, B(O) represents the amount specifically bound in the absence of inhibitor, L is the concentration of [^3H]PDBu, Kd is the measured dissociation constant for [^3H]PDBu, Ki is the dissociation constant for the inhibitor, and I is the concentration of inhibitor.
(§5) Expression of PKC isozymes in baculovirus. […] After 60-72 hr, the cells were centrifuged (1000 rpm, 10 min) and washed twice with phosphate buffered saline, and the pelleted cells kept at −70° C. until used.
(§6) For purification of the individual PKC isozymes, the cell pellet was resuspended in […] of a homogenization buffer of the following composition; 20 mM Tris-Cl, pH 8.0, 5 mM EDTA, 5 mM EGTA, 0.3% (v/v) 2-mercaptoethanol, 10 mM benzamidine, 50 μg/ml phenylmethylsulfonyl fluoride, and 250 μg/ml leupeptin. The cells were disrupted in a Potter-Elvehjem homogenizer at 4° C., and the homogenate is centrifuged at 100,000×g for 60 min.

A further test has as its target T2, δ-PKC (Homo sapiens, UniProt Q05655).
T2 construct: made in house; host or cells: Sf9 cells (baculovirus)
The description is as above. In kind it is binding. Conditions: [3H]PDBu competition. As to the method: as §1, §2, §3, §4, §5, §6

T2 sequence (Q05655 whole entry): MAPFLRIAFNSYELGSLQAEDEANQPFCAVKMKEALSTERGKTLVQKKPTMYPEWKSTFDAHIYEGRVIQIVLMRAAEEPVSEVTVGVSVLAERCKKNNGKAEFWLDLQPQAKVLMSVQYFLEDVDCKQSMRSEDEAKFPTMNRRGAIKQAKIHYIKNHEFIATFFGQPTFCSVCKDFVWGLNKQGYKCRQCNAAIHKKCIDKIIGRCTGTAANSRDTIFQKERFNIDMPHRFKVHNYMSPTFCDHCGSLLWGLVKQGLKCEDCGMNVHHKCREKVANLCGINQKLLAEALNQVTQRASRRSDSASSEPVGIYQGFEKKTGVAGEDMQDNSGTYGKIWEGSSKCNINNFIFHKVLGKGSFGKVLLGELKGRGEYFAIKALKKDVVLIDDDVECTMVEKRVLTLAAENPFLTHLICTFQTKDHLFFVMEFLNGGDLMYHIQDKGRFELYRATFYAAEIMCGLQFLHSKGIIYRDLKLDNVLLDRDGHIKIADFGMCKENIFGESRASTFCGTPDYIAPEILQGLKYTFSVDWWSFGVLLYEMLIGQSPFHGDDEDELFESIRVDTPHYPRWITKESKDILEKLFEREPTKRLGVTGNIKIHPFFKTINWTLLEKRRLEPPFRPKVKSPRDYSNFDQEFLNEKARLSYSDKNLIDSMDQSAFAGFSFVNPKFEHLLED
T1 sequence (P05771 whole entry): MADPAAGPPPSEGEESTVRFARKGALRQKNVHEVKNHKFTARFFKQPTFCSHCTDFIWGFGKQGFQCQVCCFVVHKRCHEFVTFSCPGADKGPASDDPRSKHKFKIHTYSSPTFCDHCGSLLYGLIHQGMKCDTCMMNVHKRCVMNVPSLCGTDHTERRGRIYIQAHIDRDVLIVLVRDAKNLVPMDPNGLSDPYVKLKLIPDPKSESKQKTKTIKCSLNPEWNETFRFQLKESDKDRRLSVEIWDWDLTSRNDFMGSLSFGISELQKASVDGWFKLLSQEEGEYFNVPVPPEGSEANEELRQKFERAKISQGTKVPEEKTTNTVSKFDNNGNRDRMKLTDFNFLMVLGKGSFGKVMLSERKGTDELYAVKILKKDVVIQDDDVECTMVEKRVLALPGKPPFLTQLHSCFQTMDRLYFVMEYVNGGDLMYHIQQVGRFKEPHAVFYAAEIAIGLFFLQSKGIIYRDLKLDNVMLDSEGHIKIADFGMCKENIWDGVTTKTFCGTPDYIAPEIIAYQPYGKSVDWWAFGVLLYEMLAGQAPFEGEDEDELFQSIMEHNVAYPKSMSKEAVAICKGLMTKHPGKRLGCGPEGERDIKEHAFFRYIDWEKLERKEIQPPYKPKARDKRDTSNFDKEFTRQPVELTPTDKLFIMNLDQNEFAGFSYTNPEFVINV

For `CCCCCCCCCCCC(=O)Oc1cc2c(cc1Br)[C@@H]1[C@@H](CO)NC(=O)[C@@H]1[C@]2(C)C(C)C` [Compound 5, (3S, 8S, 9S, 10S)-5-bromo-6-dodecanoyloxyl-3-hydroxymethyl-8-isopropyl-8-methyl-3,3a,8,8a-tetrahydro-2H -2-aza-cyclopenta[a]inden-1-one], the figures for the Ki at β-PKC and on δ-PKC were 1.61 ± 0.257 µM and 0.623 ± 0.318 µM, respectively.
Taken in the same sequence, the figures for `CCCCCCCCCCCC(=O)Oc1ccc2c(c1)[C@@](C)(C(C)C)[C@H]1C(=O)N[C@H](CO)[C@@H]21` [Compound 3, (3S, 8S, 9S, 10S)-6-dodecanoyloxyl-3-hydroxymethyl-8-isopropyl-8-methyl-3,3a,8,8a-tetrahydro-2H -2-aza-cyclopenta[a]inden-1-one] were 1.05 ± 0.284 µM and 0.15 ± 0.064 µM.
Taken in the same sequence, the figures for `CCCCCCCCCCCC(=O)Oc1ccc2c(c1)[C@](C)(C(C)C)[C@H]1C(=O)N[C@H](CO)[C@@H]21` [Compound 2, (3S, 8R, 9S, 10S)-6-dodecanoyloxyl-3-hydroxymethyl-8-isopropyl-8-methyl-3,3a,8,8a-tetrahydro-2H -2-aza-cyclopenta[a]inden-1-one] were 0.593 ± 0.178 µM and 1.37 ± 0.329 µM.
`CCCCCCCCCCCC(=O)Oc1cc2c(cc1C(C)=O)[C@@H]1[C@@H](CO)NC(=O)[C@@H]1[C@@]2(C)C(C)C` [Compound 11, (3S, 8R, 9S, 10S)-5-acetyl-6-dodecanoyloxyl-3-hydroxymethyl-8-isopropyl-8-methyl-3,3a,8,8a-tetrahydro-2H -2-aza-cyclopenta[a]inden-1-one]: the Ki on β-PKC is over 10 µM.
`CCCCCCCCCCCC(=O)Oc1cc2c(cc1C(C)=O)[C@@H]1[C@@H](CO)NC(=O)[C@@H]1[C@]2(C)C(C)C` [Compound 4, (3S, 8S, 9S, 10S)-5-acetyl-6-dodecanoyloxyl-3-hydroxymethyl-8-isopropyl-8-methyl-3,3a,8,8a-tetrahydro-2H -2-aza-cyclopenta[a]inden-1-one]: the inhibition constant (Ki) at β-PKC worked out at 8.49 ± 3.31 µM; at δ-PKC it was 4.37 ± 0.214 µM.
Turning to `CCCCCCCCC#Cc1ccc2c(c1)C(C)(C(C)C)C1C(=O)NC(CO)C21` [Compound 1, (3S, 8R, 9S, 10S)-6-(dec-1′-ynyl)-3-hydroxymethyl-8-isopropyl-8-methyl-3,3a,8,8a-tetrahydro-2H-2-aza-cyclopenta[a]inden-1-one], on δ-PKC, the inhibition constant Ki was found to be 1.63 ± 0.391 µM.

For orientation: Ki means a measure of affinity in units of concentration, obtained from inhibition or displacement.

The values are drawn from patent US20040019018A1, “Rigid pyrrolidone modulators of pkc” (priority 2003, published 2004).
